Source: patent US20230127046A1, “G9a INHIBITOR” (RIKEN, priority 2019, published 2023)

molecular target: T1, recombinant human G9a protein (Homo sapiens, UniProt Q96KQ7); experiment: G9a inhibitory activity test (ALPHA); format: biochemical; conditions: read-out: Inhibitory activity (G9a IC50)
T1 construct: purchased BPS Bioscience Inc. #51001
T1 sequence (Q96KQ7 785-1210 limits assumed): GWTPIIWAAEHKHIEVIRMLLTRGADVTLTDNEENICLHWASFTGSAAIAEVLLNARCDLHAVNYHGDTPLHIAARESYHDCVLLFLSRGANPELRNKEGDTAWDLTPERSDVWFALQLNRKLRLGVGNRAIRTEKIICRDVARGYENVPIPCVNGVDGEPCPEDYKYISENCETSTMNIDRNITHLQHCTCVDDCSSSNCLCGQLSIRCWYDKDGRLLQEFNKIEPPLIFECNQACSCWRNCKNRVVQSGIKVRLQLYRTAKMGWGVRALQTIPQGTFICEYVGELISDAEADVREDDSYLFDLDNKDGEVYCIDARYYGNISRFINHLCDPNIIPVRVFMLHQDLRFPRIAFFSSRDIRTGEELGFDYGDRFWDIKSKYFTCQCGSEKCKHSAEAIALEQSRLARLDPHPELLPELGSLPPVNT
Procedure, shortened: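 Human G9a (0.05 to 0.1 nM) in Tris pH 9.0 buffer preincubated with compound 10 min, then biotinylated histone H3 (1-21) peptide and SAM mixed 1:1 from 500 nM and 150 μM solutions, 1 h at room temperature. H3K9me2 detected by AlphaLISA acceptor/streptavidin donor beads; IC50 from percent inhibition relative to no-compound and no-enzyme controls.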

Structure (SMILES)	IC50
CCc1cc(C#N)ncc1NC(=O)C(CCC1CC1)NC(=O)c1[nH]c2c(c1C)C(=O)CC(C)(C)C2 (stereo not shown) [Example 15-2]	0.05 to 0.2 µM
CCc1c(C(=O)N[C@@H](CCC2CC2)C(=O)Nc2ccc(C#N)cc2)[nH]c2c1C(=O)CC(C)(C)C2 [Example 15-3]	0.05 to 0.2 µM
CC(C)c1c(C(=O)N[C@@H](CCC2CC2)C(=O)Nc2ccc(C#N)cc2)[nH]c2c1C(=O)CC(C)(C)C2 [Example 15-4]	0.05 to 0.2 µM
CCCCC(NC(=O)c1[nH]c2c(c1C)C(=O)CC(C)(C)C2)C(=O)NCc1ccc(CO)cc1 (stereo not shown) [Example 16, N-[1-[[4-(hydroxymethyl)phenyl]methylamino]-1-oxohexan-2-yl]-3,6,6-trimethyl-4-oxo-5,7-dihydro-1H-indole-2-carboxamide]	≥ 0.2 µM
CCCC[C@@H](CNc1ccccc1)NC(=O)c1[nH]c2c(c1C)C(=O)CC(C)(C)C2 [Example 17-1, (S)-3,6,6-trimethyl-4-oxo-N-(1-(phenylamino)hexan-2-yl)-4,5,6,7-tetrahydro-1H-indole-2-carboxamide]	≥ 0.2 µM
CCCC[C@@H](CNc1ccc(N2CCN(C)CC2)cc1)NC(=O)c1[nH]c2c(c1C)C(=O)CC(C)(C)C2 [Example 17-2]	≥ 0.2 µM
CCCCC(NC(=O)c1[nH]c2c(c1C)C(=O)CC(C)(C)C2)C(=O)NCc1ccc(CN2CCOCC2)cc1 (stereo not shown) [Example 18-5]	≥ 0.2 µM
CCCCC(NC(=O)c1[nH]c2c(c1C)C(=O)CC(C)(C)C2)C(=O)NCc1ccc(CN2CCCC(F)(F)C2)cc1 (stereo not shown) [Example 18-7]	≥ 0.2 µM
CCCCC(NC(=O)c1[nH]c2c(c1C)C(=O)CC(C)(C)C2)C(=O)NCc1ccc(CN2CCC(F)(F)CC2)cc1 (stereo not shown) [Example 18-8]	≥ 0.2 µM
CCCCC(NC(=O)c1[nH]c2c(c1C)C(=O)CC(C)(C)C2)C(=O)Nc1ccc(C(N)=O)cc1 (stereo not shown) [Example 20-1, N-[1-(4-carbamoylanilino)-1-oxohexan-2-yl]-3,6,6-trimethyl-4-oxo-5,7-dihydro-1H-indole-2-carboxamide]	≥ 0.2 µM
CCCCC(NC(=O)c1[nH]c2c(c1C)C(=O)CC(C)(C)C2)C(=O)NCc1ccc(C(=O)N(C)C)cc1 (stereo not shown) [Example 20-2]	≥ 0.2 µM
CCCCC(NC(=O)c1[nH]c2c(c1C)C(=O)CC(C)(C)C2)C(=O)Nc1ccc(N)cc1 (stereo not shown) [Example 21, N-[1-(4-aminoanilino)-1-oxohexan-2-yl]-3,6,6-trimethyl-4-oxo-5,7-dihydro-1H-indole-2-carboxamide]	≥ 0.2 µM
CCCC[C@H](NC(=O)c1[nH]c2c(c1C)C(=O)CC(C)(C)C2)C(=O)NCc1ccc(N2CCN(CC(C)C)CC2)cc1 [Example 22-1]	≥ 0.2 µM
CCCC[C@H](NC(=O)c1[nH]c2c(c1C)C(=O)CC(C)(C)C2)C(=O)NCc1ccc(N2CCN(CC)CC2)cc1 [Example 22-3]	≥ 0.2 µM
CCCC[C@H](NC(=O)c1[nH]c2c(c1C)C(=O)CC(C)(C)C2)C(=O)NCc1ccc(N2CCN(CCC)CC2)cc1 [Example 22-4]	≥ 0.2 µM
CCCC[C@H](NC(=O)c1[nH]c2c(c1C)C(=O)CC(C)(C)C2)C(=O)NCc1ccc(N2CCN(CCCC)CC2)cc1 [Example 22-5]	0.05 to 0.2 µM

Structure (SMILES)	IC50
CCCC[C@H](NC(=O)c1[nH]c2c(c1C)C(=O)CC(C)(C)C2)C(=O)NCc1ccc(N2CCN(CCO)CC2)cc1 [Example 23, (S)-N-(1-((4-(4-(2-hydroxyethyl)piperazin-1-yl)benzyl)amino)-1-oxohexan-2-yl)-3,6,6-trimethyl-4-oxo-4,5,6,7-tetrahydro-1H-indole-2-carboxamide]	≥ 0.2 µM
CCCCC(NC(=O)c1[nH]c2c(c1C)C(=O)CC(C)(C)C2)C(=O)Nc1ccc(OCCNC)nc1 (stereo not shown) [Example 24-1, 3,6,6-trimethyl-N-[1-[[6-[2-(methylamino)ethoxy]pyridin-3-yl]amino]-1-oxohexan-2-yl]-4-oxo-5,7-dihydro-1H-indole-2-carboxamide]	0.05 to 0.2 µM
CCCCC(NC(=O)c1[nH]c2c(c1C)C(=O)CC(C)(C)C2)C(=O)Nc1ccc(OCCN)nc1 (stereo not shown) [Example 24-4]	0.05 to 0.2 µM
CCCCC(NC(=O)c1[nH]c2c(c1C)C(=O)CC(C)(C)C2)C(=O)Nc1cc(C)c2nc(N)sc2c1 (stereo not shown) [Example 24-5]	≥ 0.2 µM
CCCCC(NC(=O)c1[nH]c2c(c1C)C(=O)CC(C)(C)C2)C(=O)Nc1cccc2c1CCNC2 (stereo not shown) [Example 25-1, 3,6,6-trimethyl-4-oxo-N-[1-oxo-1-(1,2,3,4-tetrahydroisoquinolin-5-ylamino)hexan-2-yl]-5,7-dihydro-1H-indole-2-carboxamide]	≥ 0.2 µM
CCCCC(NC(=O)c1[nH]c2c(c1C)C(=O)CC(C)(C)C2)C(=O)Nc1ccc2c(c1)CCNC2 (stereo not shown) [Example 25-2]	0.05 to 0.2 µM
CCCCC(NC(=O)c1[nH]c2c(c1C)C(=O)CC(C)(C)C2)C(=O)Nc1ccc2c(c1)CNCC2 (stereo not shown) [Example 25-3]	0.05 to 0.2 µM
CCCCC(NC(=O)c1[nH]c2c(c1C)C(=O)CC(C)(C)C2)C(=O)Nc1ccc(OC2CNC2)nc1 (stereo not shown) [Example 26-1]	0.05 to 0.2 µM
CCCC[C@H](NC(=O)c1[nH]c2c(c1C)C(=O)CC(C)(C)C2)C(=O)Nc1ccc(OC2CNC2)nc1 [Example 26-2]	< 0.05 µM
CCCC[C@@H](NC(=O)c1[nH]c2c(c1C)C(=O)CC(C)(C)C2)C(=O)Nc1ccc(OC2CNC2)nc1 [Example 26-3]	0.05 to 0.2 µM
CCCCC(NC(=O)c1[nH]c2c(c1C)C(=O)CC(C)(C)C2)C(=O)Nc1ccc(OC2CCNCC2)nc1 (stereo not shown) [Example 26-4]	< 0.05 µM
CCCCC(NC(=O)c1[nH]c2c(c1C)C(=O)CC(C)(C)C2)C(=O)Nc1ccc(N2CCNCC2)nc1 (stereo not shown) [Example 26-5]	0.05 to 0.2 µM
CCCCC(NC(=O)c1[nH]c2c(c1C)C(=O)CC(C)(C)C2)C(=O)Nc1ccc(OC2CNC2)cc1 (stereo not shown) [Example 26-6]	0.05 to 0.2 µM
CCCCC(NC(=O)c1[nH]c2c(c1C)C(=O)CC(C)(C)C2)C(=O)NCc1ccc(N2CCNCC2)cc1 (stereo not shown) [Example 26-7]	< 0.05 µM
CCCC[C@H](NC(=O)c1[nH]c2c(c1C)C(=O)CC(C)(C)C2)C(=O)NCc1ccc(N2CCNCC2)cc1 [Example 26-8]	< 0.05 µM
CCCCC(NC(=O)c1[nH]c2c(c1C)C(=O)CC(C)(C)C2)C(=O)Nc1ccc(N2CCC3(CNC3)C2)nc1 (stereo not shown) [Example 27]	0.05 to 0.2 µM

Now from value to molecule:

IC50	Structure (SMILES)
< 0.05 µM	CCc1cc(C)ccc1NC(=O)C(CCC1CC1)NC(=O)c1[nH]c2c(c1C)C(=O)CC(C)(C)C2 (stereo not shown) [Example 14-1, N-[4-cyclopropyl-1-(2-ethyl-4-methylamino)-1-oxobutan-2-yl]-3,6,6-trimethyl-4-oxo-5,7-dihydro-1H-indole-2-carboxamide]
< 0.05 µM	CCCCC(NC(=O)c1[nH]c2c(c1C)C(=O)CC(C)(C)C2)C(=O)Nc1ccc(C)cc1CC (stereo not shown) [Example 14-2]
< 0.05 µM	Cc1c(C(=O)N[C@@H](CCC2CC2)C(=O)Nc2ccc(C#N)cc2)[nH]c2c1C(=O)CC(C)(C)C2 [Example 15-1, N-[(2S)-1-(4-cyanoanilino)-4-cyclopropyl-1-oxobutan-2-yl]-3,6,6-trimethyl-4-oxo-5,7-dihydro-1H-indole-2-carboxamide]
< 0.05 µM	CCCCC(NC(=O)c1[nH]c2c(c1C)C(=O)CC(C)(C)C2)C(=O)Nc1cccc(CN(C)C)c1 (stereo not shown) [Example 18-1, N-[1-[3-[(dimethylamino)methyl]anilino]-1-oxohexan-2-yl]-3,6,6-trimethyl-4-oxo-5,7-dihydro-1H-indole-2-carboxamide]
< 0.05 µM	CCCCC(NC(=O)c1[nH]c2c(c1C)C(=O)CC(C)(C)C2)C(=O)Nc1cccc(CN2CCC(F)CC2)c1 (stereo not shown) [Example 18-2]
< 0.05 µM	CCCCC(NC(=O)c1[nH]c2c(c1C)C(=O)CC(C)(C)C2)C(=O)Nc1ccc(CN(C)C)cc1 (stereo not shown) [Example 18-3]
< 0.05 µM	CCCCC(NC(=O)c1[nH]c2c(c1C)C(=O)CC(C)(C)C2)C(=O)NCc1ccc(CNC(C)(C)C)cc1 (stereo not shown) [Example 18-4]
< 0.05 µM	CCCCC(NC(=O)c1[nH]c2c(c1C)C(=O)CC(C)(C)C2)C(=O)NCc1ccc(CNC)cc1 (stereo not shown) [Example 18-6]
< 0.05 µM	CCCCC(NC(=O)c1[nH]c2c(c1C)C(=O)CC(C)(C)C2)C(=O)NCc1ccc(CN2CCCCC2)cc1 (stereo not shown) [Example 18-9]
< 0.05 µM	CCCCC(NC(=O)c1[nH]c2c(c1C)C(=O)CC(C)(C)C2)C(=O)NCc1ccc(CN2CCC(F)CC2)cc1 (stereo not shown) [Example 18-10]
< 0.05 µM	CCCCC(NC(=O)c1[nH]c2c(c1C)C(=O)CC(C)(C)C2)C(=O)NCc1ccc(CN2CCCC2)cc1 (stereo not shown) [Example 18-11]
< 0.05 µM	CCCCC(NC(=O)c1[nH]c2c(c1C)C(=O)CC(C)(C)C2)C(=O)NCc1ccc(CN(CC)CC)cc1 (stereo not shown) [Example 18-12]
< 0.05 µM	CCCCC(NC(=O)c1[nH]c2c(c1C)C(=O)CC(C)(C)C2)C(=O)NCc1ccc(CN2CCC(C)(C)CC2)cc1 (stereo not shown) [Example 18-13]
< 0.05 µM	CCCCC(NC(=O)c1[nH]c2c(c1C)C(=O)CC(C)(C)C2)C(=O)NCc1ccc(CN2CCC2)cc1 (stereo not shown) [Example 18-14]
< 0.05 µM	CCCCC(NC(=O)c1[nH]c2c(c1C)C(=O)CC(C)(C)C2)C(=O)NCc1ccc(CCCN)cc1 (stereo not shown) [Example 19, N-[1-[[4-(3-aminopropyl)phenyl]methylamino]-1-oxohexan-2-yl]-3,6,6-trimethyl-4-oxo-5,7-dihydro-1H-indole-2-carboxamide]
< 0.05 µM	CCCCC(NC(=O)c1[nH]c2c(c1C)C(=O)CC(C)(C)C2)C(=O)NCc1ccc(CN)cc1 (stereo not shown) [Example 24-2]
< 0.05 µM	CCCCC(NC(=O)c1[nH]c2c(c1C)C(=O)CC(C)(C)C2)C(=O)NCc1ccc(CCN)cc1 (stereo not shown) [Example 24-3]
